Data as given in patent US9024017B2, “Octahydro-cyclopentapyrrolyl antagonists of CCR2” (Janssen Pharmaceutica NV, priority 2012, dated 2015).

Target: T1, CCR2 (Homo sapiens, UniProt P41597)
T1 construct: host or cells: THP-1 (human monocytic cell line)
Test: MCP-1 Receptor Binding Assay in THP-1 Cells
Conditions: read-out: MCP1B_v3 IC50
Procedure: Compounds of the invention were subjected to various representative biological tests. […] MCP-1 Receptor Binding Assay in THP-1 Cells Human monocytic cell line THP-1 cells were obtained from American Type Culture Collection (Manassas, Va., USA). The THP-1 cells were grown in RPMI-1640 (RPMI: Roswell Park Memorial Institute Medium-cell culture growth media) supplemented with 10% fetal bovine serum in a humidified 5% CO2 atmosphere at 37° C. The cell density was maintained between […].
THP-1 (cells were incubated with 0.5 nM ^125I labeled MCP-1 (Perkin-Elmer Life Sciences, Inc. Boston, Mass.) in the presence of varying concentrations of either unlabeled MCP-1 (R & D Systems, Minneapolis, Minn.) or test compound for 2 hours at 30° C. in a 96 well plate. Cells were then harvested onto a filter plate, dried, and 20 μL of Microscint 20 was added to each well. Plates were counted in a TopCount NXT, Microplate Scintillation & Luminescence Counter (Perkin-Elmer Life Sciences, Inc. Boston, Mass.). Blank values (buffer only) were subtracted from all values and drug treated values were compared to vehicle treated values. 1 μM cold MCP-1 was used for nonspecific binding.

T1 sequence (P41597 whole entry): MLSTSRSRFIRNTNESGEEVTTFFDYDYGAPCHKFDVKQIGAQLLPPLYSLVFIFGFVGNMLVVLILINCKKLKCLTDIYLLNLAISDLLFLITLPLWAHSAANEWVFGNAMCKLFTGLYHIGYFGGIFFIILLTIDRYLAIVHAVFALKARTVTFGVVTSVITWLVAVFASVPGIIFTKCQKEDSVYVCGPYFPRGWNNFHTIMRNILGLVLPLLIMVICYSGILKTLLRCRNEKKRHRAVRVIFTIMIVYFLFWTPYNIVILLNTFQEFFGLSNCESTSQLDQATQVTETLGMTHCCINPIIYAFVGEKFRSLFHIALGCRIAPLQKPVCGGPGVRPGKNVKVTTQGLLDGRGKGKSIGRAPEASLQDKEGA

SMILES | IC50 [nM]
CO[C@@H]1COCC[C@H]1N[C@@H]1C[C@H]2CN(C(N)=O)C[C@@]2(C(=O)N2CCc3ncc(C(F)(F)F)cc3C2)C1 (relative stereo) [Example 5, (3aR,5R,6aR)-5-(((3S*,4R*)-(3-Methoxytetrahydro-2H-pyran-4-yl)amino)-3a-(3-(trifluoromethyl)-5,6,7,8-tetrahydro-1,6-naphthyridine-6-carbonyl)hexahydrocyclopenta-[c]pyrrole-2(1H)-carboxamide] | 1350
CCOC1COCCC1N[C@@H]1C[C@H]2CN(C(N)=O)C[C@@]2(C(=O)N2CCc3ncc(C(F)(F)F)cc3C2)C1 (relative stereo) [Example 9, (3aR,5R,6aR)-5-(((3S*,4S*)-3-Ethoxytetrahydro-2H-pyran-4-yl)amino)-3a-(3-(trifluoromethyl)-5,6,7,8-tetrahydro-1,6-naphthyridine-6-carbonyl)hexahydrocyclopenta-[c]pyrrole-2(1H)-carboxamide] | 190
COC1COCCC1N[C@@H]1C[C@H]2CN(C(N)=O)C[C@@]2(C(=O)NCc2cccc(C(F)(F)F)c2)C1 (relative stereo) [Example 10, (3aR,5R,6aR)-5-(((3S*,4S*)-3-Methoxytetrahydro-2H-pyran-4-yl)amino)-N^3a-(3-(trifluoromethyl)benzyl)hexahydrocyclopenta[c]pyrrole-2,3a(1H)-dicarboxamide] | 320
COC1COCCC1N[C@@H]1C[C@H]2CN(C(N)=O)C[C@@]2(C(=O)NCc2cc(F)cc(C(F)(F)F)c2)C1 (relative stereo) [Example 11, (3aR,5R,6aR)-N^3a-(3-Fluoro-5-(trifluoromethyl)benzyl)-5-(((3S*,4S*)-3-methoxytetrahydro-2H-pyran-4-yl)amino)hexahydrocyclopenta[c]pyrrole-2,3a(1H)-dicarboxamide] | 320
COC1COCCC1N[C@@H]1C[C@H]2CN(C(=O)NC(C)C)C[C@@]2(C(=O)N2CCc3ncc(C(F)(F)F)cc3C2)C1 (relative stereo) [Example 14, (3aR,5R,6aR)-N-Isopropyl-5-(((3S*,4S*)-(3-methoxytetrahydro-2H-pyran-4-yl)amino)-3a-(3-(trifluoromethyl)-5,6,7,8-tetrahydro-1,6-naphthyridine-6-carbonyl)hexahydrocyclopenta[c]pyrrole-2(1H)-carboxamide] | 410
COC1COCCC1N[C@@H]1C[C@H]2CN(C(=O)NCC(C)C)C[C@@]2(C(=O)N2CCc3ncc(C(F)(F)F)cc3C2)C1 (relative stereo) [Example 15, (3aR,5R,6aR)-N-Isobutyl-5-(((3S*4S*)-(3-methoxytetrahydro-2H-pyran-4-yl)amino)-3a-(3-(trifluoromethyl)-5,6,7,8-tetrahydro-1,6-naphthyridine-6-carbonyl)hexahydrocyclopenta-[c]pyrrole-2(1H)-carboxamide] | 110
COC1COCCC1N[C@@H]1C[C@H]2CN(C(=O)Nc3ccccc3)C[C@@]2(C(=O)N2CCc3ncc(C(F)(F)F)cc3C2)C1 (relative stereo) [Example 16, (3aR,5R,6aR)-5-(((3S*,4S*)-(3-methoxytetrahydro-2H-pyran-4-yl)amino)-N-phenyl-3a-(3-(trifluoromethyl)-5,6,7,8-tetrahydro-1,6-naphthyridine-6-carbonyl)hexahydrocyclopenta-[c]pyrrole-2(1H)-carboxamide] | 470
COC1COCCC1N[C@@H]1C[C@H]2CN(C(=O)NCC(C)(C)C)C[C@@]2(C(=O)N2CCc3ncc(C(F)(F)F)cc3C2)C1 (relative stereo) [Example 18, (3aR,5R,6aR)-5-(((3S*,4S*)-3-Methoxytetrahydro-2H-pyran-4-yl)amino)-N-neopentyl-3a-(3-(trifluoromethyl)-5,6,7,8-tetrahydro-1,6-naphthyridine-6-carbonyl)hexahydrocyclopenta[c]pyrrole-2(1H)-carboxamide] | 410
COCCNC(=O)N1C[C@@H]2C[C@@H](NC3CCOCC3OC)C[C@]2(C(=O)N2CCc3ncc(C(F)(F)F)cc3C2)C1 (relative stereo) [Example 19, (3aR,5R,6aR)-N-(2-Methoxyethyl)-5-(((3S*,4S*)-3-methoxytetrahydro-2H-pyran-4-yl)amino)-3a-(3-(trifluoromethyl)-5,6,7,8-tetrahydro-1,6-naphthyridine-6-carbonyl)hexahydrocyclopenta[c]pyrrole-2(1H)-carboxamide] | 380
COC1COCCC1N[C@@H]1C[C@H]2CN(C(=O)N(C)C)C[C@@]2(C(=O)N2CCc3ncc(C(F)(F)F)cc3C2)C1 (relative stereo) [Example 21, (3aR,5R,6aR)-5-(((3S*,4S*)-3-Methoxytetrahydro-2H-pyran-4-yl)amino)-N,N-dimethyl-3a-(3-(trifluoromethyl)-5,6,7,8-tetrahydro-1,6-naphthyridine-6-carbonyl)hexahydrocyclopenta[c]pyrrole-2(1H)-carboxamide] | 220
COC1COCCC1N[C@@H]1C[C@H]2CN(C(=O)N3CCOCC3)C[C@@]2(C(=O)N2CCc3ncc(C(F)(F)F)cc3C2)C1 (relative stereo) [Example 22, ((3aR,5R,6aR)-5-(((3S*,4S*)-3-Methoxytetrahydro-2H-pyran-4-yl)amino)-2-(morpholine-4-carbonyl)octahydrocyclopenta[c]pyrrol-3a-yl)(3-(trifluoromethyl)-7,8-dihydro-1,6-naphthyridin-6(5H)-yl)methanone] | 420
COC1COCCC1N[C@@H]1C[C@H]2CN(C(=O)n3ccnc3)C[C@@]2(C(=O)N2CCc3ncc(C(F)(F)F)cc3C2)C1 (relative stereo) [Example 23, ((3aR,5R,6aR)-2-(1H-Imidazole-1-carbonyl)-5-(((3S*,4S*)-3-methoxytetrahydro-2H-pyran-4-yl)amino)octahydrocyclopenta[c]pyrrol-3a-yl)(3-(trifluoromethyl)-7,8-dihydro-1,6-naphthyridin-6(5H)-yl)methanone] | 280

Stronger by IC50, values ahead:

IC50 [nM] | SMILES
60 | COC1COCCC1N[C@@H]1C[C@H]2CN(C(N)=O)C[C@@]2(C(=O)N2CCc3ncc(C(F)(F)F)cc3C2)C1 (relative stereo) [Example 2, (3aR,5R,6aR)-5-(((3S*,4S*)-(3-Methoxytetrahydro-2H-pyran-4-yl)amino)-3a-(3-(trifluoromethyl)-5,6,7,8-tetrahydro-1,6-naphthyridine-6-carbonyl)hexahydrocyclopenta[c]pyrrole-2(1H)-carboxamide]
10 | COC1COCCC1N[C@@H]1C[C@H]2CN(C(N)=O)C[C@@]2(C(=O)N2CCc3ccc(C(F)(F)F)cc3C2)C1 (relative stereo) [Example 6, (3aR,5R,6aR)-5-(((3S*,4S*)-3-Methoxytetrahydro-2H-pyran-4-yl)amino)-3a-(7-(trifluoromethyl)-1,2,3,4-tetrahydroisoquinoline-2-carbonyl)hexahydrocyclopenta-[c]pyrrole-2(1H)-carboxamide]
100 | COC1COCCC1N[C@@H]1C[C@H]2CN(C(N)=O)C[C@@]2(C(=O)NCc2cc(C(F)(F)F)cc(C(F)(F)F)c2)C1 (relative stereo) [Example 12, (3aR,5R,6aR)-N^3a-(3,5-Bis(trifluoromethyl)benzyl)-5-(((3S*,4S*)-3-methoxytetrahydro-2H-pyran-4-yl)amino)hexahydrocyclopenta[c]pyrrole-2,3a(1H)-dicarboxamide]
80 | CNC(=O)N1C[C@@H]2C[C@@H](NC3CCOCC3OC)C[C@]2(C(=O)N2CCc3ncc(C(F)(F)F)cc3C2)C1 (relative stereo) [Example 13, (3aR,5R,6aR)-5-(((3S*,4S*)-(3-Methoxytetrahydro-2H-pyran-4-yl)amino)-N-methyl-3a-(3-(trifluoromethyl)-5,6,7,8-tetrahydro-1,6-naphthyridine-6-carbonyl)hexahydrocyclopenta-[c]pyrrole-2(1H)-carboxamide]
60 | COC1COCCC1N[C@@H]1C[C@H]2CN(C(=O)NCc3ccccc3)C[C@@]2(C(=O)N2CCc3ncc(C(F)(F)F)cc3C2)C1 (relative stereo) [Example 17, (3aR,5R,6aR)-N-benzyl-5-(((3S*,4S*)-(3-methoxytetrahydro-2H-pyran-4-yl)amino)-3a-(3-(trifluoromethyl)-5,6,7,8-tetrahydro-1,6-naphthyridine-6-carbonyl)hexahydrocyclopenta-[c]pyrrole-2(1H)-carboxamide]
50 | COC1COCCC1N[C@@H]1C[C@H]2CN(C(=O)n3ccnc3)C[C@@]2(C(=O)N2CCc3ccc(C(F)(F)F)cc3C2)C1 (relative stereo) [Example 24, ((3aR,5R,6aR)-2-(1H-Imidazole-1-carbonyl)-5-(((3S*,4S*)-3-methoxytetrahydro-2H-pyran-4-yl)amino)octahydrocyclopenta[c]pyrrol-3a-yl)(7-(trifluoromethyl)-3,4-dihydroisoquinolin-2(1H)-yl)methanone]
90 | COC1COCCC1N[C@@H]1C[C@H]2CN(C(N)=S)C[C@@]2(C(=O)N2CCc3ncc(C(F)(F)F)cc3C2)C1 (relative stereo) [Example 25, (3aR,5R,6aR)-5-(((3S*,4S*)-3-Methoxytetrahydro-2H-pyran-4-yl)amino)-3a-(3-(trifluoromethyl)-5,6,7,8-tetrahydro-1,6-naphthyridine-6-carbonyl)hexahydrocyclopenta-[c]pyrrole-2(1H)-carbothioamide]
